Results: patent US20240366539A1, “METHODS FOR TREATING AUTISM SPECTRUM DISORDERS” (INSTITUT NATIONAL DE LA SANTÉ ET DE LA RECHERCHE MÉDICALE, priority 2021, published 2024)

Key:
Shank3^Δex13-16−/− mice [1] = experiment: Novelty-suppressed feeding; assay type: in vivo, mouse; settings: Shank3Δex13-16−/− mice; chronic NaBr 250 mg/kg once daily
Procedure: (§1) Mice were treated with vehicle (NaCl 0.9%; ip, 10 or 20 ml/kg), NaBr (Sigma-Aldrich, Saint-Quentin Fallavier, France) administered either chronically (once a day, 10, 30, 70, 125, 250 and 500 mg/kg; i.p. or per os, in a volume of 20 ml/kg—except for combination with VU0155041: […]) or acutely (250 mg/kg, 20 ml/kg), KBr (Sigma-Aldrich, Saint-Quentin Fallavier, France; 145 mg/kg; i.p., 20 ml/kg), bumetanide (R&D systems, Minneapolis, USA, 0.5 and 2 mg/kg; i.p., 20 ml/kg) or VU0155041 (Cayman Chemicals, Ann Arbor, USA, once a day, i.p., 1 mg/kg, 10 ml/kg). […] When treatment was given chronically, behavioral testing started 8 days after beginning of daily administration. Treatment was maintained for 8 to 18 consecutive days (see timelines in FIGS. 1 and 4), allowing thorough behavioral phenotyping. On testing days, or when treatment was given acutely, drugs (or vehicle) were administered 30 min before behavioral assays.
(§2) Novelty-suppressed feeding. Novelty-suppressed feeding (NSF) was measured in 24-hr food-deprived mice, isolated in a standard housing cage for 30 min before individual testing. Three pellets of ordinary lab chow were placed on a white tissue in the center of each arena, lit at 60 lx. Each mouse was placed in a corner of an arena and allowed to explore for a maximum of 15 min. Latency to feed was measured as the time necessary to bite a food pellet. Immediately after an eating event, the mouse was transferred back to home cage (free from cage-mates) and allowed to feed on lab chow for 5 min. Food consumption in the home cage was measured.
(§3) To this purpose, we evaluated the effects of chronic NaBr administration at the dose of 250 mg/kg on autism-sensitive behaviors in these lines (FIG. 3A).

Fmr1^−/− mice [2] = experiment: Novelty-suppressed feeding; assay type: in vivo, mouse; settings: chronic NaBr 250 mg/kg once daily
Procedure: as §1, §2, §3

Shank3^Δex13-16−/− mice [3] = experiment: Marble-burying; assay type: in vivo, mouse; settings: Shank3Δex13-16−/− and WT mice, chronic NaBr 250 mg/kg once daily
Procedure: as §1
(§4) Marble-burying. Marble burying was used as a measure of perseverative behavior (68). Mice were introduced individually in transparent cages (21×11×17 cm) containing 20 glass marbles (diameter: 1.5 cm) evenly spaced on 4-cm deep fresh sawdust. To prevent escapes, each cage was covered with a filtering lid. Light intensity in the room was set at 40 lux. The animals were removed from the cages after 15 min, and the number of marbles buried more than half in sawdust was quoted.
as §3

Fmr1^−/− mice [4] = experiment: Marble-burying; assay type: in vivo, mouse; settings: Fmr1+/+ and Fmr1−/− mice; chronic NaBr 250 mg/kg once daily
Procedure: as §1, §4, §3

[5] = tested on: gene expression in Oprm1 null mice (NAc, CPu, VP/Tu, MeA, VTA/SNc); experiment: Real-time quantitative PCR of brain reward/social circuit regions; assay type: in vivo, mouse
Procedure: Brains were removed and placed into a brain matrix (ASI Instruments, Warren, MI, USA). Nucleus accumbens (NAc), caudate putamen (CPu), ventral pallidum/olfactory tubercle (VP/Tu), medial nucleus of the amygdala (MeA) and ventral tegmental area/substancia nigra pars compacta (VTA/SNc) were punched out/dissected from 1 mm-thick slices (data not shown). Tissues were immediately frozen on dry ice and kept at −80° C. until use. For each structure of interest, genotype and condition, samples were processed individually (n=8). RNA was extracted and purified using the Direct-Zol RNA MiniPrep kit (Zymo research, Irvine, USA). cDNA was synthetized using the ProtoScript II Reverse Transcriptase kit (New England BioLabs, Évry-Courcouronnes, France). qRT-PCR was performed in quadruplets on a CFX384 Touch Real-Time PCR Detection System (Biorad, Marnes-la-Coquette, France) using iQ-SYBR Green supermix (Bio-Rad) kit with 0.25 μl cDNA in a 12 μl final volume in Hard-Shell Thin-Wall 384-Well Skirted PCR Plates (Bio-rad). Gene-specific primers were designed using Primer3 software to obtain a 100- to 150-bp product. Relative expression ratios were normalized to the level of actin and the 2^−ΔΔCt method was applied to evaluate differential expression level. Gene expression values differing of the mean by more than two standard deviations were considered as outliers and excluded from further calculations.
To shed light on the molecular mechanism involved in beneficial effects of chronic sodium bromide administration, we assessed the effects of a 2-week NaBr treatment on gene expression in Oprm1 null mice across five regions of the brain reward/social circuit: NAc, CPu, VP/Tu, MeA and VTA/SNc. Mice underwent a first session of social interaction after one week under treatment and a second 45 min before sacrifice for qRT-PCR experiment (data not shown). We focused primarily on genes coding for chloride transporters (Slc12a2 [NKCC1], Slc12a4, 5, 6, 7 [KCC1,2,3,4, respectively], ClCa1), GABAA receptor subunits (Gabra1, 2, 3, 4, 5, Gabrb1, 2) and glutamate receptors (Grm2, 4, 5) and subunits (Grin2a, 2b). In addition, we evaluated the expression of marker genes of neuronal expression and plasticity (Fos, Bdnf), social behavior (Oxt) and striatal projection neurons (SPNs; Crh, Drd1a, Drd2, Htr6, Pdyn, Penk).

Shank3^Δex13-16−/− mice [6] = experiment: Motor stereotypies; assay type: in vivo, mouse; settings: Shank3Δex13-16−/− mice; chronic NaBr 250 mg/kg once daily
Procedure: as §1
(§5) Motor stereotypies. To detect motor stereotypies in mutant versus wild-type animals, mice were individually placed in clear standard home cages (21×11×17 cm) filled with 3-cm deep fresh sawdust for 10 min (64). Light intensity was set at 30 lux. Trained experimenters scored numbers of head shakes, as well as rearing, burying, grooming, circling episodes and total time spent burying by direct observation.
as §3

Fmr1^−/− mice [7] = experiment: Motor stereotypies; assay type: in vivo, mouse; settings: chronic NaBr 250 mg/kg once daily
Procedure: as §1, §5, §3

Oprm1^−/− mice = experiment: Behavioral tests of social, repetitive and anxious behavior (oral NaBr, KBr; data not shown); settings: mouse, in vivo, po, 250 mg/kg
Procedure: as §1
Also, we assessed the behavioral effects of chronic administration of another bromide salt, KBr.

In the case of [Br-].[Na+] [NaBr, sodium bromide], the food intake (Shank3^Δex13-16−/− mice [1]) was “had no effect on food intake”, the latency to eat (Shank3^Δex13-16−/− mice [1]) was “normalized this latency to WT levels” and the food intake (Fmr1^−/− mice [2]) was “no modification in their food intake”. For the same compound, the latency to eat (Fmr1^−/− mice [2]) was “reduced this latency”, the marble burying (Shank3^Δex13-16−/− mice [3]) was “had no effect on reduced burying in Shank3^Δex13-16−/− mice” and the marble burying (Shank3^Δex13-16−/− mice [3]; listed as bromide) was “decreased burying in both mutant and WT mice”. The “number of buried marbles” value (Fmr1^−/− mice [4]) was “reduced the number of buried marbles in both Fmr1^+/+ and Fmr1^−/− mice”, the ClCa1 transcription ([5]; CPu, mice of both genotypes, 2-week NaBr) was “increased ClCa1 transcription in mice of both genotypes” and the Oxt expression ([5]; MeA and VTA/SNc, 2-week NaBr) was “induced Oxt expression in the MeA and VTA/SNc”. The “expression of chloride transporter genes” value ([5]; Oprm1−/− mice, 2-week NaBr treatment, qRT-PCR) was “increased the expression of all tested chloride transporters in Oprm1^−/− mice”, the “expression of Gabra3, Gabra4, Gabra5, Gabrg1 and Gabrb2” value ([5]; Oprm1−/− mice, CPu, 2-week NaBr) was “consistently upregulated the expression of Gabra3, Gabra4, Gabra5, Gabrg1 and Gabrb2 in the CPu of mutant mice” and the “Oxt mRNA levels” value ([5]; Oprm1−/− mice, NAc (former) and VP/Tu (latter), 2-week NaBr) was “normalized by NaBr in the former and partially in the latter”. For the same compound, the Gabra2 expression ([5]; Oprm1−/− mice, NAc and CPu (left high in VP/Tu and MeA), 2-week NaBr) was “stimulated the expression of Gabra2”, the Slc12a5 expression ([5]; Oprm1−/− mice, NAc, CPu and MeA, 2-week NaBr) was “up-regulated the expression of Slc12a5 and Slc12a7” and the Slc12a7 expression ([5]; Oprm1−/− mice, NAc, CPu, MeA and VP/Tu, 2-week NaBr) was “up-regulated the expression of Slc12a5 and Slc12a7”. The Fos expression ([5]; Oprm1−/− mice, NAc, VP/Tu, CPu, 2-week NaBr) was “down-regulated the expression of the early gene Fos in the NAc and VP/Tu and maintained it low in the CPu”, the “ClCa1 mRNA levels” value ([5]; Oprm1−/− mice, NAc, VP/Tu, MeA, VTA/SNc, 2-week NaBr) was “normalized by NaBr treatment in the NAc, increased in the VP/Tu and maintained high in the MeA and VTA/SNc” and the Slc12a2 expression ([5]; Oprm1−/− mice, decreased in all brain regions but the VP/Tu before treatment, 2-week NaBr) was “normalized under bromide treatment”. The Grm4 expression ([5]; all brain regions but the VTA/SNc of Oprm1−/− mice, and NAc of wild-type controls, 2-week NaBr) was “upregulated the expression of Grm4”, the circling episodes (Shank3^Δex13-16−/− mice [6]) was “normalized all these parameters to WT levels” and the head shakes (Shank3^Δex13-16−/− mice [6]) was “normalized all these parameters to WT levels”. For the same compound, the spontaneous grooming (Shank3^Δex13-16−/− mice [6]) was “normalized all these parameters to WT levels”, the circling episodes (Fmr1^−/− mice [7]) was “normalized all these parameters to WT levels” and the head shakes (Fmr1^−/− mice [7]) was “normalized all these parameters to WT levels”. The “autistic-like deficits and motor stereotypies” value (Oprm1^−/− mice) was “relieved autistic-like deficits and motor stereotypies in Oprm1^−/− mice in a similar way as it did after intra-peritoneal injection”.
